Experimental data from paper PMC4894417, “Quantitative High-Throughput Profiling of Environmental Chemicals and Drugs that Modulate Farnesoid X Receptor” (Scientific Reports, 2014).
Like-named read-outs stand apart in the source and are kept apart here. One block for each compound: values may come before it.

Columns and labels:
[1] = test system: FXR-UAS-bla HEK293T cells; assay: Cell viability assay (CellTiter Glo) in the same well as FXR-bla; settings: for IC50: read-out: Cytotoxicity IC50; for Cell viability IC50: Table 1, mean ± SD of 3 experiments
human FXR [2] = target: T1, human FXR (Homo sapiens, UniProt Q96RI1); assay: FXR-bla reporter gene assay, antagonist mode (CDCA-induced transactivation); settings: for FXR antagonist activity: FXR-bla assay
T1 sequence (Q96RI1 with tags, fused parts or gaps limits assumed): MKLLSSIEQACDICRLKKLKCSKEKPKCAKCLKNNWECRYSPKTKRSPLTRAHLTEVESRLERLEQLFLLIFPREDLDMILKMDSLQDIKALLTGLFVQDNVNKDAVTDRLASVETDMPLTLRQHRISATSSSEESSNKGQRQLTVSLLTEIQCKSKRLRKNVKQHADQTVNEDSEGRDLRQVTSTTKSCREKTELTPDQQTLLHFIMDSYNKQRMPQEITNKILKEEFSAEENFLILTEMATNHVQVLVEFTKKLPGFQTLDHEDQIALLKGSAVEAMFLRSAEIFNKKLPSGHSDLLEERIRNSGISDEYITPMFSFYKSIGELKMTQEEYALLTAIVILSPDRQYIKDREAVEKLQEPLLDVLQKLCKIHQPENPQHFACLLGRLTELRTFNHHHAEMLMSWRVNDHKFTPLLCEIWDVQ

human FXR [3] = target: T1, human FXR; assay: FXR-bla reporter gene assay, agonist mode (qHTS); settings: for FXR agonist Efficacy: Table S3; for FXR agonist activity: FXR-bla assay
vitamin D receptor (VDR) = vitamin D receptor (VDR) (Homo sapiens, UniProt P11473); assay: VDR-bla reporter gene assay (agonist and antagonist modes)
vitamin D receptor (VDR), sequence (P11473 with tags, fused parts or gaps limits assumed): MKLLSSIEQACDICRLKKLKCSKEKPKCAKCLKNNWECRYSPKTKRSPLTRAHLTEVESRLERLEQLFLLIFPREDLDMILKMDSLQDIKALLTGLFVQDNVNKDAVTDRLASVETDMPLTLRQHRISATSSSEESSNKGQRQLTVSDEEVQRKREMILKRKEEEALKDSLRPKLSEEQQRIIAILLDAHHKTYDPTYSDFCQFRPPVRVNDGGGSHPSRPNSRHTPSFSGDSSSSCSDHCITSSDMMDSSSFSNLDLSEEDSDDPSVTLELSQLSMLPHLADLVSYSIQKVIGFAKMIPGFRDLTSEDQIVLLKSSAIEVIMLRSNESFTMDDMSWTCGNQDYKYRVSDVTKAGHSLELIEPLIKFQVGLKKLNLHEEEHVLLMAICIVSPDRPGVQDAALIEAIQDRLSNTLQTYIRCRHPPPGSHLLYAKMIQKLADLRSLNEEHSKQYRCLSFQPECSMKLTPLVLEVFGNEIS

[4] = IC50, FXR-bla antagonist mode, primary screening, CDCA-induced
[5] = Table S1, primary screening, 50 µM CDCA

SMILES: C[C@]12CC[C@@H]3c4ccc(O)cc4CC[C@H]3[C@@H]1CC[C@@H]2O [17β-Estradiol]
Cytotoxicity IC50 ([1]; Table S1, primary screening): Inactive

SMILES: C[C@H](CCC(=O)O)[C@H]1CC[C@H]2[C@@H]3[C@H](O)C[C@@H]4C[C@H](O)CC[C@]4(C)[C@H]3CC[C@]12C [CDCA, Chenodeoxycholic acid]
Cytotoxicity Efficacy ([1]; Table S1, primary screening): 50 ± 1%

SMILES: CC[C@H](C)[C@H]1O[C@]2(CC[C@@H]1C)C[C@@H]1C[C@@H](C/C=C(\C)[C@@H](O[C@H]3C[C@H](OC)[C@@H](O[C@H]4C[C@H](OC)[C@@H](O)[C@H](C)O4)[C@H](C)O3)[C@@H](C)/C=C/C=C3\CO[C@@H]4[C@H](O)C(C)=C[C@@H](C(=O)O1)[C@]34O)O2 [Ivermectin B1a]
Cytotoxicity Efficacy ([1]; Table S1, primary screening): 124 ± 6%
Cytotoxicity Efficacy ([1]; Table S3): 124 ± 6%
IC50 ([1]; Table S1, primary screening): 14.1 ± 2.63 µM

SMILES: CCCCNC(=O)n1c(NC(=O)OC)nc2ccccc21 [Benomyl]
FXR antagonist mode Efficacy (human FXR [2]): 21 ± 18%
IC50 (human FXR [2]; [4]): 18.3 µM
FXR agonist mode EC50 (human FXR [3]; Table S1, primary screening): Inactive
Cytotoxicity IC50 ([1]; Table S1, primary screening): Inactive

SMILES: CO[C@H]1C[C@H](O[C@H]2[C@H](C)O[C@@H](O[C@@H]3/C(C)=C/C[C@@H]4C[C@@H](C[C@]5(C=C[C@H](C)[C@@H](C6CCCCC6)O5)O4)OC(=O)[C@@H]4C=C(C)[C@@H](O)[C@H]5OC/C(=C\C=C\[C@@H]3C)[C@]54O)C[C@@H]2OC)O[C@@H](C)[C@@H]1O [Doramectin]
FXR antagonist Efficacy (human FXR [2]): 152 ± 10%
FXR antagonist mode Efficacy (human FXR [2]): 152 ± 10%
FXR agonist mode Efficacy (human FXR [3]): 62 ± 9%
FXR agonist Efficacy (human FXR [3]): 62 ± 9%
Cytotoxicity Efficacy ([1]; Table S1, primary screening): 116 ± 6%
Cytotoxicity Efficacy ([1]; Table S3): 116 ± 6%
IC50 ([1]; Table S1, primary screening): 11 µM

IC50 (human FXR [2]; [4]): 24.8 µM
FXR antagonist mode Efficacy (human FXR [2]; [5]): 84 ± 17%
FXR antagonist Efficacy (human FXR [2]; Table S3, 50 µM CDCA): 84 ± 17%
FXR agonist activity (human FXR [3]): weak FXR agonist activity
FXR agonist mode EC50 (human FXR [3]; Table S1, primary screening): Inactive
SMILES: COC(=O)C1=C(C)NC(C)=C(C(=O)OC2CCCN(Cc3ccccc3)C2)C1c1cccc([N+](=O)[O-])c1 (centres unmarked) [Benidipine]
Cytotoxicity IC50 ([1]; Table S1, primary screening): Inactive

SMILES: O=c1cc(-c2ccc(O)cc2)oc2cc(O)cc(O)c12 [Apigenin]
Cytotoxicity IC50 ([1]; Table S1, primary screening): Inactive

FXR antagonist activity (human FXR [2]; CDCA-induced): antagonists
IC50 (human FXR [2]; [4]): 34 µM
FXR antagonist mode Efficacy (human FXR [2]; [5]): 66 ± 46%
FXR agonist mode EC50 (human FXR [3]; Table S1, primary screening): Inactive
SMILES: COC(=O)C1=C(C)NC(C)=C(C(=O)OC)C1c1ccccc1[N+](=O)[O-] [Nifedipine]

SMILES: C[C@]12CC[C@@H]3c4ccc(O)cc4CC[C@H]3[C@@H]1CC[C@H]2O [17α-Estradiol]
Cytotoxicity IC50 ([1]; Table S1, primary screening): Inactive

IC50 (human FXR [2]): 31.1 ± 2.1 µM
FXR antagonist mode Efficacy (human FXR [2]; [5]): 64 ± 12%
FXR antagonist Efficacy (human FXR [2]; Table S3, 50 µM CDCA): 64 ± 12%
EC50 (human FXR [3]): 8.08 ± 3.4 µM
FXR agonist activity (human FXR [3]): FXR agonists
FXR agonist mode Efficacy (human FXR [3]; Table S1, primary screening, CDCA 100%): 64 ± 7%
FXR agonist Efficacy (human FXR [3]): 64 ± 7%
SMILES: COCCOC(=O)C1=C(C)NC(C)=C(C(=O)OC/C=C/c2ccccc2)C1c1cccc([N+](=O)[O-])c1 (centres unmarked) [Cilnidipine]
Cytotoxicity IC50 ([1]; Table S1, primary screening): Inactive

IC50 (human FXR [2]): 32.6 ± 20.2 µM
FXR antagonist activity (human FXR [2]; CDCA-induced): antagonists
FXR antagonist mode Efficacy (human FXR [2]; [5]): 73 ± 29%
FXR agonist mode EC50 (human FXR [3]; Table S1, primary screening): Inactive
SMILES: COC(=O)C1=C(C)NC(C)=C(C(=O)OCC(C)C)C1c1ccccc1[N+](=O)[O-] (centres unmarked) [Nisoldipine]
Cytotoxicity IC50 ([1]; Table S1, primary screening): Inactive

SMILES: CCC1=C[C@@H]2CN(C1)Cc1c([nH]c3ccccc13)[C@@](C(=O)OC)(c1cc3c(cc1OC)N(C)[C@H]1[C@@](O)(C(=O)OC)[C@H](OC(C)=O)[C@]4(CC)C=CCN5CC[C@]31[C@@H]54)C2 [Vinorelbine]
Cytotoxicity Efficacy ([1]; Table S3): 41 ± 5%

SMILES: COc1cccc2c1C(=O)c1c(O)c3c(c(O)c1C2=O)C[C@@](O)(C(=O)CO)C[C@@H]3O[C@H]1C[C@H](N)[C@@H](O)[C@H](C)O1 [Epirubicin]
Cell viability IC50 [1]: Inactive

SMILES: CC1(C)C(/C=C(\Cl)C(F)(F)F)C1C(=O)OC(C#N)c1cccc(Oc2ccccc2)c1 (centres unmarked) [Cyhalothrin]
FXR antagonist mode Efficacy (human FXR [2]): 50 ± 15
IC50 (human FXR [2]; FXR antagonist mode IC50): 21.3 ± 13.1 µM
FXR agonist mode EC50 (human FXR [3]; Table S1, primary screening): Inactive
VDR activity (vitamin D receptor (VDR)): antagonist activity
Cytotoxicity IC50 ([1]; Table S1, primary screening): Inactive

SMILES: CCCCc1ccc2[nH]c(NC(=O)OC)nc2c1 [Parbendazole]
FXR antagonist mode Efficacy (human FXR [2]): 43 ± 3%
IC50 (human FXR [2]; FXR antagonist mode IC50): 0.16 ± 0.14 µM
FXR agonist mode EC50 (human FXR [3]; Table S1, primary screening): Inactive
Cytotoxicity IC50 ([1]; Table S1, primary screening): Inactive

SMILES: CN1CC[C@H](c2c(O)cc(O)c3c(=O)cc(-c4ccccc4Cl)oc23)[C@H](O)C1 [Flavopiridol]
Cell viability IC50 [1]: Inactive

SMILES: CCC[S+]([O-])c1ccc2[nH]c(NC(=O)OC)nc2c1 (centres unmarked) [Albendazole oxide]
FXR antagonist mode Efficacy (human FXR [2]): 35 ± 16%
IC50 (human FXR [2]; FXR antagonist mode IC50): 27.9 ± 5.02 µM
FXR agonist mode EC50 (human FXR [3]; Table S1, primary screening): Inactive
Cytotoxicity IC50 ([1]; Table S1, primary screening): Inactive

FXR antagonist Efficacy (human FXR [2]; Table S3, 50 µM CDCA): 62 ± 4%
FXR agonist EC50 (human FXR [3]; Table S3, FXR-active drugs): Inactive
SMILES: CO[C@@]12[C@H](COC(N)=O)C3=C(C(=O)C(C)=C(N)C3=O)N1C[C@@H]1N[C@@H]12 [Mitomycin C]
